Target: T1, HpDnaK (Hsp70) (Helicobacter pylori, UniProt P55994)
T1 construct: gene dnaK; overexpressed and purified full-length protein; native protein in cells for CETSA
T1 sequence (P55994 2-620): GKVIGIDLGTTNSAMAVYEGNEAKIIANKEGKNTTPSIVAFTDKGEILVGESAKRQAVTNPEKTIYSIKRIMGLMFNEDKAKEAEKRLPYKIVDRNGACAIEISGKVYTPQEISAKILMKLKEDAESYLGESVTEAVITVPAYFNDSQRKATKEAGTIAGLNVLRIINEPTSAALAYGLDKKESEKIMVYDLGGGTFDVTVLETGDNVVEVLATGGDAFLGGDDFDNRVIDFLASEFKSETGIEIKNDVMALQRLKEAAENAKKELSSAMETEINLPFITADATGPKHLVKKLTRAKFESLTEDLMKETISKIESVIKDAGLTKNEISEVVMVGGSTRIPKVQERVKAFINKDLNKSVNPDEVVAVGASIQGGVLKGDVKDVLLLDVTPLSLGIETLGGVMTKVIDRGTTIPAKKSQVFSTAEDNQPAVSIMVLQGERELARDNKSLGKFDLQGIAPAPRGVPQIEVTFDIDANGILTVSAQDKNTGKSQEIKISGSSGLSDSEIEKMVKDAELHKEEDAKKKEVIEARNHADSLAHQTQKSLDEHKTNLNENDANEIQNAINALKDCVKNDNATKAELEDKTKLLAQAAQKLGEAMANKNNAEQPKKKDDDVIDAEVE
Assay: ATPase assay, released phosphate
Format: biochemical
Settings: no CBS; rate linear within 80 min

Nc1ncnc2c1ncn2[C@@H]1O[C@H](COP(=O)(O)OP(=O)(O)OP(=O)(O)O)[C@@H](O)[C@H]1O [ATP]
ATPase assay, released phosphate: rates of ATP hydrolysis measured by monitoring the amounts of released free phosphate

Reference: paper PMC5471454, “Integrative approach for the analysis of the proteome-wide response to bismuth drugs in Helicobacter pylori” (Chemical Science, 2017)
